We go through two molecules from US9730970B2, “Seaweed extracts, unsaturated aldehydes, and methods of treatment” (University of Florida Research Foundation, Inc., priority 2013, dated 2017).

Each structure is given as a SMILES string.

The test system of this experiment is NQO1. Put plainly: qPCR of NQO1 transcription in IMR-32 cells. Format: cell-based, human. As for the experimental part: IMR-32 cells (1×10^6 cells/well) were seeded in 6-well plates one day before treatment. Cells were treated with variable concentrations of purified compounds 1-4 for 12 h. Total RNA was extracted with the RNeasy Mini Kit (Qiagen). cDNA was synthesized from 2 μg of total RNA by using SuperScript II Reverse Transcriptase (Invitrogen) and Oligo(dT)12-18 primer (Invitrogen). Real-time PCR was performed in triplicate using GAPDH expression as internal control for normalization.
(Real-time PCR tracks product formation cycle by cycle.)

`CCC(Cl)C(O)C(O)/C=C/C=C/C=O` (centres unmarked) [Compound 4, 8-chloro-6,7-dihydroxydeca-2,4-dienal]: under “20 μg/mL, 12 h”, the “activation of NQO1 transcription” value was determined as 6.4 fold.
Turning to `CC(C)(C)c1cc(O)ccc1O` [tBHQ, Tert-butylhydroquinone], the “activation of NQO1 transcription” value (positive control under identical conditions) was 5.9 fold.
